The assay deals with Recombinant human ATX (Homo sapiens (Human), UniProt Q13822). The assay can be described thus: ATX inhibition assay (choline release, Amplex Red fluorescence). Particulars: ATX 10 nM, LPC 18:1 10 μM, 37° C., 20 min pre-incubation; mean of n≧2. In kind it is biochemical. A digest of the protocol: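 Activity was taken from the slope of resorufin fluorescence (530/590 nm, read every 2 min for 40 min at 37 °C) produced by choline liberated from 10 μM oleoyl LPC.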
The IC50 is the concentration at which inhibition is half-maximal. In the case of `CCOC(=O)C1CCN(C(=O)/C=C/c2ccc(Cl)cc2Cn2nnc(C)n2)CC1` [Example 49.9, (E)-ethyl 1-(3-(4-Chloro-2-((5-methyl-2H-tetrazol-2-yl)methyl)phenyl)acryloyl)piperidine-4-carboxylate], the IC50 amounted to 5.9 nM.

Consider `Cc1nnn(Cc2cc(Cl)ccc2/C=C/C(=O)N2CC[C@@H](c3nnc(C)o3)C[C@H]2C)n1` [Example 98, (E)-3-(4-Chloro-2-((5-methyl-2H-tetrazol-2-yl)methyl)phenyl)-1-((2R,4R)-2-methyl-4-(5-methyl-1,3,4-oxadiazol-2-yl)piperidin-1-yl)prop-2-en-1-one], for which the half-inhibitory concentration (IC50) came to 66 nM.

Take `Cc1nnn(Cc2cc(Cl)ccc2/C=C/C(=O)N2CCCC(C(N)=O)C2)n1` (centres unmarked) [Example 49.8, (E)-1-(3-(4-Chloro-2-((5-methyl-2H-tetrazol-2-yl)methyl)phenyl)acryloyl)piperidine-3-carboxamide]: the IC50 worked out at 354 nM.

In the case of `Cc1nnn(Cc2cc(Cl)ccc2/C=C/C(=O)N2CCC(N3CCNC3=O)CC2)n1` [Example 49.3, (E)-1-(1-(3-(4-Chloro-2-((5-methyl-2H-tetrazol-2-yl)methyl)phenyl)acryloyl)piperidin-4-yl)imidazolidin-2-one], the half-inhibitory concentration (IC50) is 129 nM.

As for `Cc1cn(C2CCN(C(=O)/C=C/c3ccc(Cl)cc3Cn3nnc(C)n3)CC2)nn1` [Example 9, (E)-3-(4-Chloro-2-((5-methyl-2H-tetrazol-2-yl)methyl)phenyl)-1-(4-(4-methyl-1H-1,2,3-triazol-1-yl)piperidin-1-yl)prop-2-en-1-one], the IC50 is 100 nM.

With `Cc1nnn(Cc2cc(Cl)ccc2/C=C/C(=O)N2CCC(c3nnc(CN4CCCCC4)o3)CC2)n1` [Example 122, (E)-3-(4-Chloro-2-((5-methyl-2H-tetrazol-2-yl)methyl)phenyl)-1-(4-(5-(piperidin-1-ylmethyl)-1,3,4-oxadiazol-2-yl)piperidin-1-yl)prop-2-en-1-one], the IC50 was 58 nM.

For the molecule `Cc1nnn(Cc2cc(Cl)ccc2/C=C/C(=O)N2CC(S(C)(=O)=O)C2)n1` [Example 49.2, (E)-3-(4-Chloro-2-((5-methyl-2H-tetrazol-2-yl)methyl)phenyl)-1-(3-(methylsulfonyl)azetidin-1-yl)prop-2-en-1-one], the IC50 was 477 nM.

As to `CNC(=O)[C@@H]1CCCN1C(=O)/C=C/c1ccc(C(F)(F)F)cc1Cn1nnc(C)n1` [Example 90, (S,E)-N-Methyl-1-(3-(2-((5-methyl-2H-tetrazol-2-yl)methyl)-4-(trifluoromethyl)phenyl)acryloyl)pyrrolidine-2-carboxamide], the IC50 came out at 49 nM.

With `Cc1nnn(Cc2cc(Cl)ccc2/C=C/C(=O)N2CCC(c3ccc(F)cc3)CC2)n1` [Example 64, (E)-3-(4-Chloro-2-((5-methyl-2H-tetrazol-2-yl)methyl)phenyl)-1-(4-(4-fluorophenyl)piperidin-1-yl)prop-2-en-1-one], the IC50 worked out at 31 nM.

Regarding `Cc1nnn(Cc2cc(Cl)ccc2/C=C/C(=O)N2CCC(c3nnc(C(C)C)o3)CC2)n1` [Example 100, (E)-3-(4-Chloro-2-((5-methyl-2H-tetrazol-2-yl)methyl)phenyl)-1-(4-(5-isopropyl-1,3,4-oxadiazol-2-yl)piperidin-1-yl)prop-2-en-1-one], the IC50 was 3.9 nM.

`Cc1nnn(Cc2cc(C(F)(F)F)ccc2/C=C/C(=O)N2CCC(c3nnc(C)o3)CC2)n1` [Example 57, (E)-1-(4-(5-Methyl-1,3,4-oxadiazol-2-yl)piperidin-1-yl)-3-(2-((5-methyl-2H-tetrazol-2-yl)methyl)-4-(trifluoromethyl)phenyl)prop-2-en-1-one]: the half-inhibitory concentration (IC50) is 8 nM.

Consider `Cc1nnn(Cc2cc(C(F)(F)F)ccc2/C=C/C(=O)N2CCCC[C@H]2C(F)(F)F)n1` [Example 121, (S,E)-3-(2-((5-Methyl-2H-tetrazol-2-yl)methyl)-4-(trifluoromethyl)phenyl)-1-(2-(trifluoromethyl)piperidin-1-yl)prop-2-en-1-one], for which the IC50 came to 6.9 nM.

With `Cc1nnn(Cc2cc(Cl)ccc2/C=C/C(=O)N2CCC(c3coc(C)n3)CC2)n1` [Example 27, (E)-3-(4-Chloro-2-((5-methyl-2H-tetrazol-2-yl)methyl)phenyl)-1-(4-(2-methyloxazol-4-yl)piperidin-1-yl)prop-2-en-1-one], the concentration for half-maximal inhibition (IC50) worked out at 59 nM.

For the molecule `Cc1ccc(/C=C/C(=O)N2CCC(Cc3nnc(C)o3)CC2)c(Cn2nnc(C)n2)c1` [Example 72, (E)-1-(4-((5-Methyl-1,3,4-oxadiazol-2-yl)methyl)piperidin-1-yl)-3-(4-methyl-2-((5-methyl-2H-tetrazol-2-yl)methyl)phenyl)prop-2-en-1-one], the IC50 is 290 nM.

Regarding `Cc1ncn(C2CCN(C(=O)/C=C/c3ccc(C(F)(F)F)cc3Cn3nnc(C)n3)CC2)n1` [Example 37, (E)-1-(4-(3-Methyl-1H-1,2,4-triazol-1-yl)piperidin-1-yl)-3-(2-((5-methyl-2H-tetrazol-2-yl)methyl)-4-(trifluoromethyl)phenyl)prop-2-en-1-one], the half-inhibitory concentration (IC50) was determined as 17 nM.

Consider `Cc1noc(CC2CCN(C(=O)/C=C/c3ccc(C(F)(F)F)cc3Cn3nnc(C)n3)CC2)n1` [Example 60, (E)-1-(4-((3-Methyl-1,2,4-oxadiazol-5-yl)methyl)piperidin-1-yl)-3-(2-((5-methyl-2H-tetrazol-2-yl)methyl)-4-(trifluoromethyl)phenyl)prop-2-en-1-one], for which the IC50 was found to be 8.8 nM.

In the case of `CCS(=O)(=O)N1CCN(C(=O)/C=C/c2ccc(C(F)(F)F)cc2Cn2nnc(C)n2)CC1` [Example 102, (E)-1-(4-(Ethylsulfonyl)piperazin-1-yl)-3-(2-((5-methyl-2H-tetrazol-2-yl)methyl)-4-(trifluoromethyl)phenyl)prop-2-en-1-one], the IC50 came to 53 nM.

As for `Cc1nnn(Cc2cc(C#N)ccc2/C=C/C(=O)N2CCC(Cc3nnc(C)o3)CC2)n1` [Example 82, (E)-4-(3-(4-((5-Methyl-1,3,4-oxadiazol-2-yl)methyl)piperidin-1-yl)-3-oxoprop-1-en-1-yl)-3-((5-methyl-2H-tetrazol-2-yl)methyl)benzonitrile], the IC50 was 785 nM.

On to `Cc1nnn(Cc2cc(Cl)ccc2/C=C/C(=O)N2CCC(Oc3ccc(C(F)(F)F)cn3)CC2)n1` [Example 135, (E)-3-(4-Chloro-2-((5-methyl-2H-tetrazol-2-yl)methyl)phenyl)-1-(4-((5-(trifluoromethyl)pyridin-2-yl)oxy)piperidin-1-yl)prop-2-en-1-one], for which the IC50 was 327 nM.

Turning to `Cc1nnn(Cc2cc(Cl)ccc2/C=C/C(=O)N2CCC(C(O)c3ccc(Cl)cc3)CC2)n1` (single isomer, unassigned) [Example 66a, ((R or S), E)-3-(4-Chloro-2-((5-methyl-2H-tetrazol-2-yl)methyl)phenyl)-1-(4-((4-chlorophenyl)(hydroxy)methyl)piperidin-1-yl)prop-2-en-1-one], the IC50 worked out at 4.2 nM.

`Cc1noc(Cc2cc(Cl)ccc2/C=C/C(=O)N2CCC(Cc3nnc(C)o3)CC2)n1` [Example 21, (E)-3-(4-Chloro-2-((3-methyl-1,2,4-oxadiazol-5-yl)methyl)phenyl)-1-(4-((5-methyl-1,3,4-oxadiazol-2-yl)methyl)piperidin-1-yl)prop-2-en-1-one]: the IC50 worked out at 208 nM.

Regarding `Cc1nnn(Cc2cc(C(F)(F)F)ccc2/C=C/C(=O)N2CCCCC2c2noc(C)n2)n1` (single isomer, unassigned) [Example 38b, (R or S, E)-1-(2-(5-methyl-1,2,4-oxadiazol-3-yl)piperidin-1-yl)-3-(2-((5-methyl-2H-tetrazol-2-yl)methyl)-4-(trifluoromethyl)phenyl)prop-2-en-1-one], the IC50 worked out at 410 nM.

For the molecule `Cc1nnn(Cc2cc(Cl)ccc2/C=C/C(=O)N2CCCCC2c2nc(C(C)C)no2)n1` (single isomer, unassigned) [Example 30a, (R or S, E)-3-(4-Chloro-2-((5-methyl-2H-tetrazol-2-yl)methyl)phenyl)-1-(2-(3-isopropyl-1,2,4-oxadiazol-5-yl)piperidin-1-yl)prop-2-en-1-one], the half-inhibitory concentration (IC50) came out at 4.9 nM.

For the molecule `Cc1noc(CN2CCN(C(=O)/C=C/c3ccc(Cl)cc3Cn3nnc(C)n3)[C@H](C)C2)n1` [Example 114, (R,E)-3-(4-Chloro-2-((5-methyl-2H-tetrazol-2-yl)methyl)phenyl)-1-(2-methyl-4-((3-methyl-1,2,4-oxadiazol-5-yl)methyl)piperazin-1-yl)prop-2-en-1-one], the IC50 came to 3.9 nM.

As to `C/C(=C\C(=O)N1CCC(c2nnc(C)o2)CC1)c1ccc(Cl)cc1Cn1nnc(C)n1` [Example 39, (E)-3-(4-Chloro-2-((5-methyl-2H-tetrazol-2-yl)methyl)phenyl)-1-(4-(5-methyl-1,3,4-oxadiazol-2-yl)piperidin-1-yl)but-2-en-1-one], the IC50 came to 75 nM.

Consider `Cc1cc(CN2CCN(C(=O)/C=C/c3ccc(Cl)cc3Cn3nnc(C)n3)CC2)on1` [Example 140.2, (E)-3-(4-Chloro-2-((5-methyl-2H-tetrazol-2-yl)methyl)phenyl)-1-(4-((3-methylisoxazol-5-yl)methyl)piperazin-1-yl)prop-2-en-1-one], for which the IC50 amounted to 64 nM.

In the case of `Cc1nnn(Cc2cc(Cl)ccc2/C=C/C(=O)N2CCC(n3ncnc3C)CC2)n1` [Example 11, (E)-3-(4-Chloro-2-((5-methyl-2H-tetrazol-2-yl)methyl)phenyl)-1-(4-(5-methyl-1H-1,2,4-triazol-1-yl)piperidin-1-yl)prop-2-en-1-one], the IC50 is 73 nM.

`Cc1nnn(Cc2cc(C(F)(F)F)ccc2/C=C/C(=O)N2CCC(N3CCCC3=O)CC2)n1` [Example 126, (E)-1-(1-(3-(2-((5-Methyl-2H-tetrazol-2-yl)methyl)-4-(trifluoromethyl)phenyl)acryloyl)piperidin-4-yl)pyrrolidin-2-one]: the IC50 was determined as 22 nM.

With `COC[C@@H]1CCCN1C(=O)/C=C/c1ccc(C(F)(F)F)cc1Cn1nnc(C)n1` [Example 111, (S,E)-1-(2-(Methoxymethyl)pyrrolidin-1-yl)-3-(2-((5-methyl-2H-tetrazol-2-yl)methyl)-4-(trifluoromethyl)phenyl)prop-2-en-1-one], the IC50 was 47 nM.
